Article PMC10101059, “Rational Design of Stapled Antimicrobial Peptides to Enhance Stability and In Vivo Potency against Polymicrobial Sepsis” (Microbiology Spectrum, 2023)
Converted amounts (≈) assume the structure as drawn. Read-outs that look alike come from different tables or passages of the source.

Key:
NDM1 K. pneumoniae = assay: microbe, parasite or virus in culture; assay type: cell-based, Klebsiella pneumoniae
MDR A. baumannii 3618 = assay: Checkerboard microdilution assay (FICI); assay type: cell-based, Acinetobacter baumannii
Procedure: (§1) The FICI was measured using a standard checkerboard microdilution assay ([57]). Two-fold dilutions of antibiotics were made across the x axis, and two-fold peptide dilutions were made across the y axis. Next, bacteria were added at 5 × 10^5 CFU/well (A. baumannii), followed by incubation at 37 ± 2°C for 16 to 20 h. FIC indices were calculated according to the following equations: FICI = FIC1 + FIC2; FIC1 = (MIC12 combined)/MIC1; FIC2 = (MIC12 combined)/MIC2. The combined efficacy was estimated as follows: FICI ≤ 0.5, synergistic; 0.5 to 1, additive; 1 to 2, indifferent; ≥2, antagonistic.

MDR A. baumannii 1033 = assay: Checkerboard microdilution assay (FICI); assay type: cell-based, Acinetobacter baumannii
Procedure: as §1

MDR A. baumannii 2088 = assay: Checkerboard microdilution assay (FICI); assay type: cell-based, Acinetobacter baumannii
Procedure: as §1

MDR A. baumannii 2998 = assay: Checkerboard microdilution assay (FICI); assay type: cell-based, Acinetobacter baumannii
Procedure: as §1

MDR A. baumannii 2997 = assay: Checkerboard microdilution assay (FICI); assay type: cell-based, Acinetobacter baumannii
Procedure: as §1

Acinetobacter baumannii = assay: microbe, parasite or virus in culture; assay type: cell-based; details: for MBC / MIC: Acinetobacter baumannii; for MBC: read-out: MBC; for MIC: read-out: MIC
Procedure: The antimicrobial assay was performed according to a modified National Committee for Clinical Laboratory Standards (NCCLS) protocol ([41], [42]). Briefly, 5 × 10^5 CFU/mL bacterial cells were treated with various peptide concentrations and incubated at 37 ± 2°C for 16 to 20 h. The lowest concentration with clear wells was recorded as the MIC for each test molecule. The clear wells were further plated in Mueller-Hinton agar (MHA) plates, followed by incubation overnight at 37 ± 2°C. After plating, the lowest concentration at which no growth was observed was recorded as the MBC. For the serum sensitivity assay, the antimicrobial activity of the peptides was tested in medium containing 50% human serum ([43], [44]). The antimicrobial assay was performed in the presence of physiological ions and glucose. The test media were supplemented with MgCl2 (1 mM), CaCl2 (2 mM), NaCl (150 mM), KCl (4.5 mM), NH4Cl (6 μM) ([45], [46]), or glucose (0.2%) ([47]), followed by routine antimicrobial assay as described previously. For the pH sensitivity assay, the antimicrobial assay was performed in media adjusted to pH values ranging from 4 to 12. To estimate the effects of temperature on antimicrobial activity, the peptide was incubated for 1 h at temperatures ranging from 40 to 100°C ([48]), followed by the antimicrobial assay as described above.

MDR A. baumannii 921 = assay: microbe, parasite or virus in culture; assay type: cell-based, Acinetobacter baumannii
Procedure: as §1

MDR A. baumannii 1702 = assay: microbe, parasite or virus in culture; assay type: cell-based, Acinetobacter baumannii
Procedure: as §1

MDR A. baumannii 1019 = assay: microbe, parasite or virus in culture; assay type: cell-based, Acinetobacter baumannii
Procedure: as §1

MDR A. baumannii 2962 = assay: microbe, parasite or virus in culture; assay type: cell-based, Acinetobacter baumannii
Procedure: as §1

MDR A. baumannii 1607 = assay: microbe, parasite or virus in culture; assay type: cell-based, Acinetobacter baumannii
Procedure: as §1

MDR A. baumannii 2982 = assay: microbe, parasite or virus in culture; assay type: cell-based, Acinetobacter baumannii
Procedure: as §1

A. baumannii [1] = assay: Bacterial killing kinetics; assay type: cell-based, Acinetobacter baumannii; details: within 8 h, at respective MBC
Procedure: Mid-log-phase A. baumannii (5 × 10^5 CFU/mL) bacterial cells were treated with the test candidates at appropriate bactericidal concentrations, followed by incubation at 37°C. The treated bacterial cells were plated in MHA to determine the bacterial killing rate as a function of time ([52]).

A. baumannii [2] = assay: Serial passage (induced resistance) assay; assay type: cell-based, Acinetobacter baumannii; details: after serial passage for 15 cycles
Procedure: The experimental procedure was performed according to the MIC protocol for A. baumannii described above. Subsequently, bacterial samples from sub-MIC wells were passaged, and the MIC was estimated again. This process was repeated for 15 cycles, and the change in MIC over […] was reported ([23]).

A. baumannii biofilm = assay: Biofilm inhibition assay; assay type: cell-based, Acinetobacter baumannii; details: 0.5× to 4× MIC
Procedure: (i) Biofilm inhibition assay. Fifty μL of 2 × 10^6 CFU/mL A. baumannii bacterial suspension was added to a 96-well plate. Then, 50 μL of peptide/drug (various concentrations) was added, and the plate was incubated for 24 h. The residual solution was removed, and wells were washed, followed by treatment with 100% methanol for 15 min at room temperature. The methanol was then removed, and the wells were allowed to dry at room temperature. Next, the wells were incubated with 100 μL of 0.02% crystal violet for 30 min. After the incubation, the wells were washed with distilled water and dried for an appropriate length of time. Finally, 100 μL of 33% acetic acid was added to the wells for 1 h, followed by reading the absorbance at 595 nm ([55]).

[3] = MIC of each agent in combination, TP4-3 and M
[4] = Acinetobacter baumannii, read-out: Single drug treatment MIC
[5] = 1 h, agent pre-exposed to 40°C for 1 h
[6] = 1 h, agent pre-exposed to 60°C for 1 h
[7] = 1 h, agent pre-exposed to 80°C for 1 h
[8] = preincubation in 50% human serum 2 h
[9] = preincubation in 50% human serum 6 h
[10] = preincubation in 50% human serum 12 h
[11] = preincubation in 50% human serum 24 h

Compound: C[C@@H](O)[C@H]1C(=O)N2C(C(=O)O)=C(S[C@@H]3CN[C@H](C(=O)N(C)C)C3)[C@H](C)[C@H]12 [Meropenem]
- MIC (NDM1 K. pneumoniae; Klebsiella pneumoniae, read-out: Single drug treatment MIC): 400 µM (≈ 153 µg/mL)
- TP4-3 and meropenem combined MIC (NDM1 K. pneumoniae; [3]): 200 µM
- MIC (MDR A. baumannii 3618; [4]): 200 µM
- TP4-3 and meropenem combined MIC (MDR A. baumannii 3618; [3]): 25 µM
- MIC (MDR A. baumannii 1033; [4]): 200 µM
- TP4-3 and meropenem combined MIC (MDR A. baumannii 1033; [3]): 50 µM
- MIC (MDR A. baumannii 2088; [4]): 400 µM
- TP4-3 and meropenem combined MIC (MDR A. baumannii 2088; [3]): 100 µM
- MIC (MDR A. baumannii 2998; [4]): 400 µM
- TP4-3 and meropenem combined MIC (MDR A. baumannii 2998; [3]): 50 µM
- MIC (MDR A. baumannii 2997; [4]): 200 µM
- TP4-3 and meropenem combined MIC (MDR A. baumannii 2997; [3]): 12.5 µM
- reduction of activity (Acinetobacter baumannii; 24 h pre-incubation in 50% human serum): 2 fold
- MBC (Acinetobacter baumannii; [5]): 6.25 µM (≈ 2.4 µg/mL)
- MIC (Acinetobacter baumannii; [5]): 6.25 µM (≈ 2.4 µg/mL)
- MBC (Acinetobacter baumannii; [6]): 6.25 µM (≈ 2.4 µg/mL)
- MIC (Acinetobacter baumannii; [6]): 6.25 µM (≈ 2.4 µg/mL)
- MBC (Acinetobacter baumannii; [7]): 12.5 µM (≈ 4.79 µg/mL)
- MIC (Acinetobacter baumannii; [7]): 12.5 µM (≈ 4.79 µg/mL)
- MBC (Acinetobacter baumannii; 1 h, agent pre-exposed to 100°C for 1 h): > 25 µM
- MBC (Acinetobacter baumannii; [8]): 6.25 to 12.5 µM (≈ 2.4 to 4.79 µg/mL)
- MIC (Acinetobacter baumannii; [8]): 6.25 µM (≈ 2.4 µg/mL)
- MBC (Acinetobacter baumannii; [9]): 6.25 to 12.5 µM (≈ 2.4 to 4.79 µg/mL)
- MIC (Acinetobacter baumannii; [9]): 6.25 µM (≈ 2.4 µg/mL)
- MBC (Acinetobacter baumannii; [10]): 12.5 µM (≈ 4.79 µg/mL)
- MIC (Acinetobacter baumannii; [10]): 6.25 µM (≈ 2.4 µg/mL)
- MBC (Acinetobacter baumannii; [11]): 25 µM (≈ 9.59 µg/mL)
- MIC (Acinetobacter baumannii; [11]): 12.5 µM (≈ 4.79 µg/mL)
- MIC (Acinetobacter baumannii; agent pre-exposed to 100°C for 1 h): > 25 µM
- MIC (MDR A. baumannii 921; [4]): 400 µM
- TP4-3 and meropenem combined MIC (MDR A. baumannii 921; [3]): 100 µM
- MIC (MDR A. baumannii 1702; [4]): 25 to 50 µM
- TP4-3 and meropenem combined MIC (MDR A. baumannii 1702; [3]): 12.5 µM
- MIC (MDR A. baumannii 1019; [4]): 50 µM
- TP4-3 and meropenem combined MIC (MDR A. baumannii 1019; [3]): 6.25 µM
- MIC (MDR A. baumannii 2962; [4]): 100 µM
- TP4-3 and meropenem combined MIC (MDR A. baumannii 2962; [3]): 25 µM
- MIC (MDR A. baumannii 1607; [4]): 100 µM
- TP4-3 and meropenem combined MIC (MDR A. baumannii 1607; [3]): 12.5 µM
- MIC (MDR A. baumannii 2982; [4]): 400 µM
- TP4-3 and meropenem combined MIC (MDR A. baumannii 2982; [3]): 200 µM
- reduction of the bacterial population (A. baumannii [1]): approximately half
- net increase in the MIC (A. baumannii [2]): 53 fold
- inhibition of biofilm (biomass) formation (A. baumannii biofilm): substantial inhibition of biomass formation
